Where “and” joins values, the source holds several entries; their conditions need not be identical. Equal entries are not always repeated. Numbers after ± are expanded uncertainties.
Conditions: Crystal

[F][Cd][F] [cadmium difluoride]
Conditions	vapor or sublimation pressure
962 K	1.26e-05 ± 1.4e-06 kPa
968 K	1.35e-05 ± 1.8e-06 kPa
973 K	1.58e-05 ± 4.9e-06 kPa
977 K	2e-05 ± 3.7e-06 kPa
978 K	2.51e-05 ± 4.5e-06 kPa
983 K	2.51e-05 ± 4.3e-06 kPa
984 K	2.69e-05 ± 3.7e-06 kPa
988 K	3.39e-05 ± 5.1e-06 kPa
992 K	3.39e-05 ± 6.7e-06 kPa
993 K	3.47e-05 ± 6.6e-06 kPa
1000 K	5.01e-05 ± 9.6e-06 kPa
1001 K	4.68e-05 ± 9.5e-06 kPa
1002 K	4.57e-05 ± 9.3e-06 kPa
1003 K	5.75e-05 ± 1e-05 kPa
1004 K	5.01e-05 ± 9.3e-06 kPa
1009 K	6.76e-05 ± 7.4e-06 kPa
1012 K	7.94e-05 ± 8.7e-06 kPa
1013 K	6.92e-05 ± 1.2e-05 kPa and 6.76e-05 ± 1.2e-05 kPa and 7.59e-05 ± 1.3e-05 kPa
1014 K	5.75e-05 ± 1.4e-05 kPa
1016 K	6.76e-05 ± 1.3e-05 kPa
1017 K	5.75e-05 ± 6.5e-06 kPa and 9.12e-05 ± 9.6e-06 kPa
1018 K	8.51e-05 ± 8.6e-06 kPa
1021 K	0.000102 ± 1.1e-05 kPa
1022 K	8.71e-05 ± 1.6e-05 kPa and 0.000115 ± 1.8e-05 kPa
1025 K	6.76e-05 ± 1.4e-05 kPa and 0.000107 ± 1.7e-05 kPa
1026 K	7.94e-05 ± 1.5e-05 kPa
1027 K	9.12e-05 ± 9.3e-06 kPa
1028 K	0.000117 ± 1.2e-05 kPa
1030 K	0.000126 ± 1.7e-05 kPa
1031 K	0.000135 ± 1.6e-05 kPa
1032 K	9.12e-05 ± 1.3e-05 kPa and 0.000102 ± 1.3e-05 kPa and 0.00012 ± 1.5e-05 kPa
1033 K	9.12e-05 ± 9.2e-06 kPa and 0.000158 ± 1.6e-05 kPa
1036 K	0.000102 ± 1.5e-05 kPa
1038 K	0.000115 ± 2.1e-05 kPa and 0.000162 ± 2.4e-05 kPa
1040 K	0.000135 ± 2e-05 kPa and 0.000186 ± 2.4e-05 kPa
1042 K	0.000162 ± 2.5e-05 kPa and 0.000182 ± 2.6e-05 kPa
1043 K	0.000186 ± 2.5e-05 kPa [middle of 4 runs]
1046 K	0.000138 ± 3.1e-05 kPa and 0.000158 ± 3.2e-05 kPa
1048 K	0.000158 ± 4.9e-05 kPa
1049 K	0.000229 ± 3.5e-05 kPa
1050 K	0.000182 ± 2.5e-05 kPa
1051 K	0.000214 ± 3.1e-05 kPa
1052 K	0.000251 ± 3.6e-05 kPa and 0.000295 ± 4e-05 kPa
1053 K	0.000251 ± 3.5e-05 kPa
1054 K	0.000204 ± 4.6e-05 kPa and 0.000263 ± 5.9e-05 kPa
1055 K	0.000182 ± 4.1e-05 kPa and 0.000204 ± 4.2e-05 kPa
1057 K	0.000204 ± 5.9e-05 kPa
1059 K	0.000229 ± 3.6e-05 kPa
1060 K	0.000275 ± 4.3e-05 kPa
1061 K	0.000309 ± 4.7e-05 kPa
1062 K	0.000389 ± 4.9e-05 kPa
1064 K	0.000275 ± 7.6e-05 kPa and 0.000339 ± 7.9e-05 kPa
1066 K	0.000275 ± 3e-05 kPa
1068 K	0.000295 ± 3e-05 kPa and 0.000316 ± 3.2e-05 kPa and 0.000275 ± 2.8e-05 kPa
1069 K	0.000407 ± 0.00011 kPa and 0.000389 ± 0.00011 kPa
1070 K	0.000355 ± 5.5e-05 kPa
1071 K	0.000339 ± 4.6e-05 kPa
1073 K	0.000398 ± 6e-05 kPa
1074 K	0.000525 ± 0.00012 kPa
1075 K	0.000389 ± 7e-05 kPa and 0.000479 ± 7.6e-05 kPa
1077 K	0.000363 ± 5.6e-05 kPa
1078 K	0.000407 ± 6.6e-05 kPa
1079 K	0.000457 ± 4.6e-05 kPa [middle of 4 runs]
1080 K	0.000501 ± 0.00012 kPa
1082 K	0.000457 ± 7.2e-05 kPa
1084 K	0.000537 ± 5.7e-05 kPa and 0.000676 ± 7.1e-05 kPa
1086 K	0.000676 ± 0.0001 kPa
1087 K	0.000501 ± 7.7e-05 kPa
1088 K	0.00055 ± 8e-05 kPa
1089 K	0.000457 ± 0.00016 kPa and 0.000589 ± 0.00016 kPa
1090 K	0.00055 ± 0.00015 kPa
1091 K	0.000708 ± 7.3e-05 kPa
1093 K	0.000617 ± 9.3e-05 kPa
1095 K	0.000933 ± 0.00016 kPa
1096 K	0.000631 ± 0.0001 kPa
1097 K	0.000631 ± 6.3e-05 kPa and 0.000724 ± 7.3e-05 kPa and 0.000912 ± 9.2e-05 kPa
1098 K	0.000724 ± 0.00015 kPa and 0.000575 ± 0.00014 kPa and 0.000741 ± 0.00015 kPa
1101 K	0.000912 ± 0.00013 kPa
1102 K	0.000724 ± 0.00013 kPa
1103 K	0.000933 ± 0.00021 kPa
1104 K	0.000813 ± 0.00017 kPa
1105 K	0.000871 ± 0.00017 kPa and 0.0012 ± 0.0002 kPa
1107 K	0.000912 ± 0.00013 kPa and 0.000813 ± 0.00012 kPa and 0.000676 ± 0.00012 kPa
1108 K	0.0012 ± 0.00012 kPa
1110 K	0.00117 ± 0.00022 kPa
1111 K	0.00117 ± 0.00026 kPa
1114 K	0.001 ± 0.00019 kPa and 0.0011 ± 0.0002 kPa and 0.00105 ± 0.0002 kPa
1115 K	0.00135 ± 0.00025 kPa
1116 K	0.00151 ± 0.00024 kPa
1117 K	0.00117 ± 0.00015 kPa and 0.00102 ± 0.00014 kPa and 0.00115 ± 0.00015 kPa
1118 K	0.0011 ± 0.00014 kPa and 0.001 ± 0.00013 kPa and 0.00158 ± 0.00019 kPa
1120 K	0.0017 ± 0.00017 kPa
1121 K	0.00162 ± 0.00018 kPa
1123 K	0.00145 ± 0.00018 kPa
1124 K	0.00115 ± 0.00016 kPa
1125 K	0.00132 ± 0.00014 kPa and 0.00138 ± 0.00014 kPa
1126 K	0.00129 ± 0.00014 kPa
1127 K	0.00145 ± 0.00015 kPa and 0.00129 ± 0.00014 kPa and 0.00191 ± 0.00019 kPa
1129 K	0.00141 ± 0.00027 kPa and 0.002 ± 0.00031 kPa and 0.00195 ± 0.00031 kPa
1134 K	0.00174 ± 0.00024 kPa
1135 K	0.00195 ± 0.00028 kPa
1136 K	0.00178 ± 0.00027 kPa and 0.00166 ± 0.00027 kPa
1137 K	0.00245 ± 0.00032 kPa
1138 K	0.00245 ± 0.00033 kPa
1139 K	0.00182 ± 0.00026 kPa
1145 K	0.00224 ± 0.00036 kPa
1147 K	0.00229 ± 0.00033 kPa
1149 K	0.00229 ± 0.0003 kPa

Reference: the NIST ThermoML archive (doi:10.1021/je800242n)
